Measurements reported in article PMC12217463, “Functional and structural analyses of amino acid sequence variation in PDC β-lactamase reveal different mechanistic pathways toward cefiderocol resistance in Pseudomonas aeruginosa” (Antimicrobial Agents and Chemotherapy, 2025).
Converted amounts (≈) assume the structure as drawn.

What was measured:
PAO1 + blaPDC A200T = test: MIC, broth microdilution; type: cell-based; conditions: Pseudomonas aeruginosa
Description: (§1) We took advantage of a previously constructed and characterized laboratory collection of recombinant P. aeruginosa PAO1 isolates expressing different blaPDC variants, but specifically enriched for this work with additional variants, following the previously described methodology ([17]). […] The final collection comprised 40 recombinant isolates (20 in PAO1 and 20 in PAO ΔpiuC) producing the wild-type PDC-1 variant from PAO1 and 19 derivatives carrying specific amino acid substitutions previously associated with the development of resistance to ceftazidime/avibactam, ceftolozane/tazobactam, or cefiderocol: T70I, F121L, P153L, G156D, A200T, G202S, ΔG202-E219, G214R, P215L, P215S, ΔP215-G222, D217N, E219K, E219G, E219D, S226ins, L293P, F121L + E219K, and F121L + G222S.
(§2) The MICs of ceftazidime, ceftazidime/avibactam, ceftolozane/tazobactam, cefepime, and cefiderocol were determined in triplicate, for all isolates, by reference broth microdilution assays. Avibactam and tazobactam were fixed at 4 mg/L. All assays were performed using cation-adjusted Mueller-Hinton broth (CAMHB), except for cefiderocol, which was determined in all cases using iron-depleted CAMHB, prepared according to CLSI M100 guidelines ([40]). EUCAST v.15.0 clinical breakpoints and guidelines (http://www.eucast.org/clinical_breakpoints/) were used for reference purposes. Reference strains Escherichia coli ATCC 25922, Klebsiella pneumoniae ATCC 700603, and P. aeruginosa ATCC 27853 were used as controls.

PAO1 + blaPDC D217N = test: MIC, broth microdilution; type: cell-based; conditions: Pseudomonas aeruginosa
Description: as §1, §2

PAO1 + blaPDC E219D = test: MIC, broth microdilution; type: cell-based; conditions: Pseudomonas aeruginosa
Description: as §1, §2

PAO1 + blaPDC E219G = test: MIC, broth microdilution; type: cell-based; conditions: Pseudomonas aeruginosa
Description: as §1, §2

PAO1 + blaPDC E219K = test: MIC, broth microdilution; type: cell-based; conditions: Pseudomonas aeruginosa
Description: as §1, §2

[1] = test system: PAO1 + blaPDC F121L + E219K; test: MIC, broth microdilution; type: cell-based; conditions: Pseudomonas aeruginosa
Description: as §1, §2

PAO1 + blaPDC F121L = test: MIC, broth microdilution; type: cell-based; conditions: Pseudomonas aeruginosa
Description: as §1, §2

PAO1 + blaPDC G156D = test: MIC, broth microdilution; type: cell-based; conditions: Pseudomonas aeruginosa
Description: as §1, §2

PAO1 + blaPDC G202S = test: MIC, broth microdilution; type: cell-based; conditions: Pseudomonas aeruginosa
Description: as §1, §2

PAO1 + blaPDC G214R = test: MIC, broth microdilution; type: cell-based; conditions: Pseudomonas aeruginosa
Description: as §1, §2

PAO1 + blaPDC L293P = test: MIC, broth microdilution; type: cell-based; conditions: Pseudomonas aeruginosa
Description: as §1, §2

PAO1 + blaPDC P153L = test: MIC, broth microdilution; type: cell-based; conditions: Pseudomonas aeruginosa
Description: as §1, §2

PAO1 + blaPDC P215L = test: MIC, broth microdilution; type: cell-based; conditions: Pseudomonas aeruginosa
Description: as §1, §2

PAO1 + blaPDC P215S = test: MIC, broth microdilution; type: cell-based; conditions: Pseudomonas aeruginosa
Description: as §1, §2

PAO1 + blaPDC S226ins = test: MIC, broth microdilution; type: cell-based; conditions: Pseudomonas aeruginosa, avibactam and tazobactam fixed at 4 mg/L, FDC in iron-depleted CAMHB
Description: as §1, §2

PAO1 + blaPDC T70I = test: MIC, broth microdilution; type: cell-based; conditions: Pseudomonas aeruginosa
Description: as §1, §2

PAO1 + blaPDC ∆G202-E219 = test: MIC, broth microdilution; type: cell-based; conditions: Pseudomonas aeruginosa, avibactam and tazobactam fixed at 4 mg/L, FDC in iron-depleted CAMHB
Description: as §1, §2

PAO1 + blaPDC ∆P215-G222 = test: MIC, broth microdilution; type: cell-based; conditions: Pseudomonas aeruginosa, avibactam and tazobactam fixed at 4 mg/L, FDC in iron-depleted CAMHB
Description: as §1, §2

PAO1 + blaPDC-1 (WT) = test: MIC, broth microdilution; type: cell-based; conditions: Pseudomonas aeruginosa, avibactam and tazobactam fixed at 4 mg/L, FDC in iron-depleted CAMHB
Description: as §1, §2

PAO1 = test: MIC, broth microdilution; type: cell-based; conditions: Pseudomonas aeruginosa; PAO1 wild type, no plasmid-borne PDC; avibactam and tazobactam fixed at 4 mg/L; FDC in iron-depleted CAMHB
Description: as §1, §2

[2] = test system: PAO1 + blaPDC F121L + G220S; test: MIC, broth microdilution; type: cell-based; conditions: Pseudomonas aeruginosa
PDC-1 (WT) = PDC-1 (WT) (Pseudomonas aeruginosa, UniProt P24735); test: Steady-state kinetics of purified β-lactamase; conditions: for kcat: PDC-1 (WT), direct hydrolysis at substrate concentration at least three times the Km, 10 mM PBS, pH 7.4, room temperature; for Ratio: kcat/Km relative to PDC-1 (reference = 1)
PDC E219K = PDC E219K (Pseudomonas aeruginosa, UniProt P24735, E247K); test: Steady-state kinetics of purified β-lactamase; conditions: for increase in kcat values: PDC E219K relative to PDC-1; for Km / kcat: PDC E219K, 10 mM PBS, pH 7.4, room temperature; for Km: antibiotics: determined as Ki app with nitrocefin as reporter substrate; for kcat: direct hydrolysis at substrate concentration at least three times the Km; for Ratio for PDC E219K/PDC-1: ratio of kcat/Km (fold change in catalytic efficiency)
PDC L293P = PDC L293P (Pseudomonas aeruginosa, UniProt P24735, L320P); test: Steady-state kinetics of purified β-lactamase; conditions: for Km / kcat: PDC L293P, 10 mM PBS, pH 7.4, room temperature; for Km: antibiotics: determined as Ki app with nitrocefin as reporter substrate; for kcat: direct hydrolysis at substrate concentration at least three times the Km; for Ratio for PDC L293P/PDC-1: ratio of kcat/Km (fold change in catalytic efficiency)

For CC(C)(O/N=C(\C(=O)N[C@@H]1C(=O)N2C(C(=O)[O-])=C(C[n+]3ccccc3)CS[C@H]12)c1csc(N)n1)C(=O)O [CAZ, ceftazidime], the MIC (PAO1 + blaPDC A200T) was 64 µg/mL (≈ 117 µM), the MIC (PAO1 + blaPDC D217N) was 64 µg/mL (≈ 117 µM) and the MIC (PAO1 + blaPDC E219D) was 64 µg/mL (≈ 117 µM). The MIC (PAO1 + blaPDC E219G) was 16 µg/mL (≈ 29.3 µM), the MIC (PAO1 + blaPDC E219K) was 256 µg/mL (≈ 468 µM) and the MIC [1] was > 256 µg/mL. It also gave an MIC (PAO1 + blaPDC F121L) of 64 µg/mL (≈ 117 µM), an MIC (PAO1 + blaPDC G156D) of 64 µg/mL (≈ 117 µM) and an MIC (PAO1 + blaPDC G202S) of 64 µg/mL (≈ 117 µM). The MIC (PAO1 + blaPDC G214R) was 128 µg/mL (≈ 234 µM), the MIC (PAO1 + blaPDC L293P) was 64 µg/mL (≈ 117 µM) and the MIC (PAO1 + blaPDC P153L) was 128 µg/mL (≈ 234 µM). The MIC (PAO1 + blaPDC P215L) was 64 µg/mL (≈ 117 µM), the MIC (PAO1 + blaPDC P215S) was 64 µg/mL (≈ 117 µM) and the MIC (PAO1 + blaPDC S226ins) was 128 µg/mL. The MIC (PAO1 + blaPDC T70I) was 64 µg/mL (≈ 117 µM), the MIC (PAO1 + blaPDC ∆G202-E219) was 64 µg/mL and the MIC (PAO1 + blaPDC ∆P215-G222) was 256 µg/mL. The MIC (PAO1 + blaPDC-1 (WT)) was 32 µg/mL, the MIC (PAO1) was ≤ 1 µg/mL and the MIC [2] was 64 µg/mL (≈ 117 µM). The kcat (PDC-1 (WT)) was 0.0082 s⁻¹, the Ratio (PDC-1 (WT)) was 1 and the “increase in kcat values” (PDC E219K) was “≈ 267 fold”. For the same molecule, the Km (PDC E219K) was 292 ± 27.5 µM, the kcat (PDC E219K; listed as Ceftazidime) was 2.19 ± 0.17 s⁻¹ and the kcat (PDC E219K; listed as ceftazidime) was 2.19 s⁻¹. The “Ratio for PDC E219K/PDC-1” value (PDC E219K; listed as Ceftazidime) was 15.56, the “Ratio for PDC E219K/PDC-1” value (PDC E219K; listed as ceftazidime) was “≈ 16” and the Km (PDC L293P) was 2.84 ± 0.31 µM. For the same molecule, the kcat (PDC L293P) was 0.0110 ± 0.0003 s⁻¹ and the “Ratio for PDC L293P/PDC-1” value (PDC L293P) was 8.67.
For Cn1c(N)c(NC(=O)NCCN)c[n+]1CC1=C(C(=O)O)N2C(=O)[C@@H](NC(=O)/C(=N\OC(C)(C)C(=O)[O-])c3nsc(N)n3)[C@H]2SC1 [Ceftolozane, ceftolozane], the kcat (PDC-1 (WT)) was 0.0715 s⁻¹, the Ratio (PDC-1 (WT)) was 1 and the “increase in kcat values” (PDC E219K) was “≈ 58 fold”. The Km (PDC E219K) was 266 ± 43.5 µM, the kcat (PDC E219K) was 4.18 ± 0.19 s⁻¹ and the kcat (PDC E219K; listed as ceftolozane) was 4.18 s⁻¹. The “Ratio for PDC E219K/PDC-1” value (PDC E219K) was 123.08, the “Ratio for PDC E219K/PDC-1” value (PDC E219K; listed as ceftolozane) was “≈ 123” and the Km (PDC L293P) was 108 ± 28.8 µM. The kcat (PDC L293P) was 0.051 ± 0.007 s⁻¹ and the “Ratio for PDC L293P/PDC-1” value (PDC L293P) was 3.69.
